Data from patent US20240024273A1, “TOPICAL ADMINISTRATION OF 2-(DIETHYLAMINO)ETHYL 2-(4-ISOBUTYLPHENYL)PROPRIONATE FOR TREATMENT OF DISEASES” (TECHFIELDS PHARMA CO., LTD., priority 2020, published 2024).

Tested on: Subjects with Osteoarthritis of the Knee
Test: Second Phase 2 study: safety (treatment-emergent adverse events)
Type: in vivo, human
Conditions: for Adverse events of special interest, Events / Adverse events of special interest, Subjects, number (%) / Local skin reactions around the treated knees, Events / Local skin reactions around the treated knees, Subjects, number (%) / Requires hospitalization, Events / Requires hospitalization, Subjects, number (%) / Results in death, number (%) / Serious treatment-emergent adverse events, Events / Serious treatment-emergent adverse events, Subjects, number (%) / Severe treatment-emergent adverse events, Events / Severe treatment-emergent adverse events, Subjects, number (%) / To be discontinued from the study due to adverse events, Events / To be discontinued from the study due to adverse events, Subjects, number (%) / To be discontinued from the treatment temporarily due to adverse events, Events / To be discontinued from the treatment temporarily due to adverse events, Subjects, number (%) / Treatment-emergent adverse events, Events / Treatment-emergent adverse events, Subjects, number (%): All Causalities
Source text: Safety assessments will be performed at each visit and will include assessment of AEs, vital signs (blood pressure, pulse rate, and oral temperature), clinical laboratories, physical examination, skin irritation, and electrocardiograms (ECGs) as indicated in the study flow chart, Table 47.
Safety assessments will include AEs, vital signs (blood pressures, pulse rate, and oral temperature), clinical laboratories, physical examination, skin irritation, and ECGs at various time points during the study as indicated in the study flow chart.
Adverse events of interest include: local skin reactions around the treated knee(s), upper stomach pain, GI bleeding, serious cardiovascular side effects (e.g., thrombotic events, myocardial infarction, or stroke), jaundice, elevated liver function tests, and nausea.
Safety analyses will be conducted on the SAS. Safety parameters will be listed and summarized using standard descriptive statistics, as appropriate. No formal statistical analyses are planned.

[1] = moderate adverse events, 4.375 mg/knee, BID, N = 71

SMILES: CCN(CC)CCOC(=O)C(C)c1ccc(CC(C)C)cc1 (stereo not drawn) [2-(diethylamino)ethyl 2-(4-isobutylphenyl)propionate]
- Aspartate Aminotransferase Increased: number of adverse events (17.5 mg/knee, BID, N = 70): 1
- Aspartate Aminotransferase Increased: percentage of subjects with adverse events (17.5 mg/knee, BID, N = 70): 1.4%
- Aspartate Aminotransferase Increased: subjects with adverse events (17.5 mg/knee, BID, N = 70): 1
- Back Pain: number of adverse events (17.5 mg/knee, BID, N = 70): 1(%)[1]
- Back Pain: subjects with adverse events, number (percentage) (17.5 mg/knee, BID, N = 70): 1(%)[1]
- Constipation: number of adverse events (17.5 mg/knee, BID, N = 70): 1
- Constipation: percentage of subjects with adverse events (17.5 mg/knee, BID, N = 70): 1.4%
- Constipation: subjects with adverse events (17.5 mg/knee, BID, N = 70): 1
- Cough: number of adverse events (17.5 mg/knee, BID, N = 70): 2
- Cough: subjects with adverse events, number (percentage) (17.5 mg/knee, BID, N = 70): 2(2.9%)
- Dizziness: number of adverse events (17.5 mg/knee, BID, N = 70): 1
- Dizziness: subjects with adverse events, number (percentage) (17.5 mg/knee, BID, N = 70): 1(1.4%)
- Frequency of Positive Fecal Occult Blood Test (17.5 mg/knee, BID, N = 70): 5
- Gastrointestinal Disorders: number of adverse events (17.5 mg/knee, BID, N = 70): 5
- Gastrointestinal Disorders: percentage of subjects with adverse events (17.5 mg/knee, BID, N = 70): 5.7%
- Gastrointestinal Disorders: subjects with adverse events (17.5 mg/knee, BID, N = 70): 4
- Gout: number of adverse events (17.5 mg/knee, BID, N = 70): 1
- Gout: percentage of subjects with adverse events (17.5 mg/knee, BID, N = 70): 1.4%
- Gout: subjects with adverse events (17.5 mg/knee, BID, N = 70): 1
- Headache: number of adverse events (17.5 mg/knee, BID, N = 70): 1
- Headache: subjects with adverse events, number (percentage) (17.5 mg/knee, BID, N = 70): 1(1.4%)
- Hypercholesterolaemia: number of adverse events (17.5 mg/knee, BID, N = 70): 2
- Hypercholesterolaemia: percentage of subjects with adverse events (17.5 mg/knee, BID, N = 70): 2.9%
- Hypercholesterolaemia: subjects with adverse events (17.5 mg/knee, BID, N = 70): 2
- Hypertriglyceridemia: number of adverse events (17.5 mg/knee, BID, N = 70): 6
- Hypertriglyceridemia: percentage of subjects with adverse events (17.5 mg/knee, BID, N = 70): 8.6%
- Hypertriglyceridemia: subjects with adverse events (17.5 mg/knee, BID, N = 70): 6
- Infections and Infestations: number of adverse events (17.5 mg/knee, BID, N = 70): 14
- Infections and Infestations: subjects with adverse events, number (percentage) (17.5 mg/knee, BID, N = 70): 13(18.6%)
- Investigations: number of adverse events (17.5 mg/knee, BID, N = 70): 1
- Investigations: percentage of subjects with adverse events (17.5 mg/knee, BID, N = 70): 1.4%
- Investigations: subjects with adverse events (17.5 mg/knee, BID, N = 70): 1
- Metabolism and Nutrition Disorders: number of adverse events (17.5 mg/knee, BID, N = 70): 9
- Metabolism and Nutrition Disorders: percentage of subjects with adverse events (17.5 mg/knee, BID, N = 70): 11.4%
- Metabolism and Nutrition Disorders: subjects with adverse events (17.5 mg/knee, BID, N = 70): 9
- Muscle Spasms: number of adverse events (17.5 mg/knee, BID, N = 70): 3
- Muscle Spasms: subjects with adverse events, number (percentage) (17.5 mg/knee, BID, N = 70): 2
- Musculoskeletal Pain: number of adverse events (17.5 mg/knee, BID, N = 70): 2
- Musculoskeletal Pain: subjects with adverse events, number (percentage) (17.5 mg/knee, BID, N = 70): 1
- Musculoskeletal and Connective Tissue Disorders, Overall Total: number of adverse events (17.5 mg/knee, BID, N = 70): 8
- Musculoskeletal and Connective Tissue Disorders, Overall Total: subjects with adverse events, number (percentage) (17.5 mg/knee, BID, N = 70): 6(8.6%)
- Neck Pain: number of adverse events (17.5 mg/knee, BID, N = 70): 1(%)[1]
- Neck Pain: subjects with adverse events, number (percentage) (17.5 mg/knee, BID, N = 70): 1(%)[1]
- Nervous System Disorders: number of adverse events (17.5 mg/knee, BID, N = 70): 2
- Nervous System Disorders: subjects with adverse events, number (percentage) (17.5 mg/knee, BID, N = 70): 2(2.9%)
- Pain in Extremity: number of adverse events (17.5 mg/knee, BID, N = 70): 1(%)[1]
- Pain in Extremity: subjects with adverse events, number (percentage) (17.5 mg/knee, BID, N = 70): 1(%)[1]
- Rash: number of adverse events (17.5 mg/knee, BID, N = 70): 2
- Rash: percentage of subjects with adverse events (17.5 mg/knee, BID, N = 70): 4.2%
- Rash: subjects with adverse events (17.5 mg/knee, BID, N = 70): 2
- Respiratory, Thoracic and Mediastinal Disorders: number of adverse events (17.5 mg/knee, BID, N = 70): 2
- Respiratory, Thoracic and Mediastinal Disorders: subjects with adverse events, number (percentage) (17.5 mg/knee, BID, N = 70): 2(2.9%)
- Skin Irritation: number of adverse events (17.5 mg/knee, BID, N = 70): 4
- Skin Irritation: percentage of subjects with adverse events (17.5 mg/knee, BID, N = 70): 1.4%
- Skin Irritation: subjects with adverse events (17.5 mg/knee, BID, N = 70): 3
- Skin and Subcutaneous Tissue Disorders: number of adverse events (17.5 mg/knee, BID, N = 70): 6
- Skin and Subcutaneous Tissue Disorders: percentage of subjects with adverse events (17.5 mg/knee, BID, N = 70): 7.1%
- Skin and Subcutaneous Tissue Disorders: subjects with adverse events (17.5 mg/knee, BID, N = 70): 5
- Subjects with Positive Fecal Occult Blood Test (17.5 mg/knee, BID, N = 70): 5
- Subjects with Positive Fecal Occult Blood Test, percentage (17.5 mg/knee, BID, N = 70): 7.1%
- Toothache: number of adverse events (17.5 mg/knee, BID, N = 70): 1
- Toothache: percentage of subjects with adverse events (17.5 mg/knee, BID, N = 70): 1.4%
- Toothache: subjects with adverse events (17.5 mg/knee, BID, N = 70): 1
- Upper Respiratory Tract Infection: number of adverse events (17.5 mg/knee, BID, N = 70): 5
- Upper Respiratory Tract Infection: subjects with adverse events, number (percentage) (17.5 mg/knee, BID, N = 70): 5(7.1%)
- Urinary Tract Infection: number of adverse events (17.5 mg/knee, BID, N = 70): 9
- Urinary Tract Infection: subjects with adverse events, number (percentage) (17.5 mg/knee, BID, N = 70): 8(11.4%)
- Adverse events of special interest, Events (4.375 mg/knee BID, n = 71): 16
- Adverse events of special interest, Subjects, number (%) (4.375 mg/knee BID, n = 71): 11 (15.5%)
- Local skin reactions around the treated knees, Events (4.375 mg/knee BID, n = 71): 1
- Local skin reactions around the treated knees, Subjects, number (%) (4.375 mg/knee BID, n = 71): 1 (1.4%)
- Requires hospitalization, Events (4.375 mg/knee BID, n = 71): 0
- Requires hospitalization, Subjects, number (%) (4.375 mg/knee BID, n = 71): 0
- Results in death, number (%) (4.375 mg/knee BID, n = 71): 1 (1.4%)
- Serious treatment-emergent adverse events, Events (4.375 mg/knee BID, n = 71): 1
- Serious treatment-emergent adverse events, Subjects, number (%) (4.375 mg/knee BID, n = 71): 1 (1.4)
- Severe treatment-emergent adverse events, Events (4.375 mg/knee BID, n = 71): 1
- Severe treatment-emergent adverse events, Subjects, number (%) (4.375 mg/knee BID, n = 71): 1 (1.4%)
- To be discontinued from the study due to adverse events, Events (4.375 mg/knee BID, n = 71): 1
- To be discontinued from the study due to adverse events, Subjects, number (%) (4.375 mg/knee BID, n = 71): 1 (1.4%)
- To be discontinued from the treatment temporarily due to adverse events, Events (4.375 mg/knee BID, n = 71): 1
- To be discontinued from the treatment temporarily due to adverse events, Subjects, number (%) (4.375 mg/knee BID, n = 71): 1 (1.4%)
- Treatment-emergent adverse events, Events (4.375 mg/knee BID, n = 71): 68
- Treatment-emergent adverse events, Subjects, number (%) (4.375 mg/knee BID, n = 71): 41 (57.7%)
- Adverse events of special interest, Events (8.75 mg/knee BID, n = 70): 12
- Adverse events of special interest, Subjects, number (%) (8.75 mg/knee BID, n = 70): 10 (14.3)
- Local skin reactions around the treated knees, Events (8.75 mg/knee BID, n = 70): 1
- Local skin reactions around the treated knees, Subjects, number (%) (8.75 mg/knee BID, n = 70): 1 (1.4%)
- Requires hospitalization, Events (8.75 mg/knee BID, n = 70): 1
- Requires hospitalization, Subjects, number (%) (8.75 mg/knee BID, n = 70): 1 (1.4%)
- Results in death, number (%) (8.75 mg/knee BID, n = 70): 0
- Serious treatment-emergent adverse events, Events (8.75 mg/knee BID, n = 70): 1
- Serious treatment-emergent adverse events, Subjects, number (%) (8.75 mg/knee BID, n = 70): 1 (1.4)
- Severe treatment-emergent adverse events, Events (8.75 mg/knee BID, n = 70): 1
- Severe treatment-emergent adverse events, Subjects, number (%) (8.75 mg/knee BID, n = 70): 1 (1.4%)
- To be discontinued from the study due to adverse events, Events (8.75 mg/knee BID, n = 70): 0
- To be discontinued from the study due to adverse events, Subjects, number (%) (8.75 mg/knee BID, n = 70): 0
- To be discontinued from the treatment temporarily due to adverse events, Events (8.75 mg/knee BID, n = 70): 1
- To be discontinued from the treatment temporarily due to adverse events, Subjects, number (%) (8.75 mg/knee BID, n = 70): 1 (1.4%)
- Treatment-emergent adverse events, Events (8.75 mg/knee BID, n = 70): 71
- Treatment-emergent adverse events, Subjects, number (%) (8.75 mg/knee BID, n = 70): 39 (55.7%)
- Adverse events of special interest, Events (17.5 mg/knee BID, n = 70): 14
- Adverse events of special interest, Subjects, number (%) (17.5 mg/knee BID, n = 70): 11 (15.7)
- Local skin reactions around the treated knees, Events (17.5 mg/knee BID, n = 70): 5
- Local skin reactions around the treated knees, Subjects, number (%) (17.5 mg/knee BID, n = 70): 4 (5.7%)
- Requires hospitalization, Events (17.5 mg/knee BID, n = 70): 0
- Requires hospitalization, Subjects, number (%) (17.5 mg/knee BID, n = 70): 0
- Results in death, number (%) (17.5 mg/knee BID, n = 70): 0
- Serious treatment-emergent adverse events, Events (17.5 mg/knee BID, n = 70): 0
- Serious treatment-emergent adverse events, Subjects, number (%) (17.5 mg/knee BID, n = 70): 0
- Severe treatment-emergent adverse events, Events (17.5 mg/knee BID, n = 70): 0
- Severe treatment-emergent adverse events, Subjects, number (%) (17.5 mg/knee BID, n = 70): 0
- To be discontinued from the study due to adverse events, Events (17.5 mg/knee BID, n = 70): 1
- To be discontinued from the study due to adverse events, Subjects, number (%) (17.5 mg/knee BID, n = 70): 1 (1.4%)
- To be discontinued from the treatment temporarily due to adverse events, Events (17.5 mg/knee BID, n = 70): 0
- To be discontinued from the treatment temporarily due to adverse events, Subjects, number (%) (17.5 mg/knee BID, n = 70): 0
- Treatment-emergent adverse events, Events (17.5 mg/knee BID, n = 70): 52
- Treatment-emergent adverse events, Subjects, number (%) (17.5 mg/knee BID, n = 70): 30 (42.9%)
- safety and tolerability (all three doses (4.375, 8.75, 17.5 mg/knee BID)): appeared to be safe and were generally well tolerated
- skin irritation incidences, total (all mild) (in vivo): 9
- overall safety vs oral ibuprofen (in vivo, po): safer than oral ibuprofen
- Gastroenteritis: number of adverse events [1]: 1
- Gastroenteritis: percentage of subjects with adverse events [1]: 1.4%
